Data reported in ChEMBL document CHEMBL5150068, “Structure-Based Design of Tropane Derivatives as a Novel Series of CCR5 Antagonists with Broad-Spectrum Anti-HIV-1 Activities and Improved Oral Bioavailability” (J Med Chem, 2022).
Where “and” joins values, the source holds several entries; their conditions need not be identical. Identical values can stand only once.

Key:
[1] = tested on: Human immunodeficiency virus 1; assay: Antiviral activity against HIV-1 Ba-L infected in human TZM-bl cells measured after 48 hrs incubation by luciferase based analysis; assay type: functional, organism-based; details: Human immunodeficiency virus 1, Ba-L
[2] = molecular target: C-C chemokine receptor type 5 (Homo sapiens, UniProt P51681); assay: Antagonist activity at CCR5 (unknown origin) expressed in HEK293 cells co-expressing Galpha16 assessed as intracellular calcium change incubated for 15 mins by Fluo-4 AM calcium flux assay; assay type: functional, cell-based
in vitro = details: human, TZM-bl cells
Description: Therapeutic index, ratio of CC50 for human TZM-bl cells to EC50 for antiviral activity against HIV-1 Ba-L

[3] = Cytotoxicity against human TZM-bl cells incubated for 48 hrs by MTT assay; assay type: toxicity, cell-based
[4] = tested on: Human immunodeficiency virus 1; assay: Antiviral activity against HIV-1 SF162 infected in human TZM-bl cells measured after 48 hrs incubation by luciferase based analysis; assay type: functional, organism-based; details: Human immunodeficiency virus 1, SF162, TZM-bl
[5] = tested on: Human immunodeficiency virus 1; assay: Antiviral activity against HIV-1 YU-2 infected in human TZM-bl cells measured after 48 hrs incubation by luciferase based analysis; assay type: functional, organism-based; details: tzm-bl

Sequence of C-C chemokine receptor type 5 (P51681 whole entry): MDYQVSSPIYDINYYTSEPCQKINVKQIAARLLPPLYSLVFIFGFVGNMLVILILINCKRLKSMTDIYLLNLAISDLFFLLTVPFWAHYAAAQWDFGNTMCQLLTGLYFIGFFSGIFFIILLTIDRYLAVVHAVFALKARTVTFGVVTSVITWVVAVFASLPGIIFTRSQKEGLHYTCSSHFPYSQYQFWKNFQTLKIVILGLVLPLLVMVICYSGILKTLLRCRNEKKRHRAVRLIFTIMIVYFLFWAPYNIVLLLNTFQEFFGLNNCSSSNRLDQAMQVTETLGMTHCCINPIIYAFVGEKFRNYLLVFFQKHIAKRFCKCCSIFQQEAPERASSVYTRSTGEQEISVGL

Row | Compound | EC50 [1] [nM] | IC50 [2] [nM] | selectivity ratio (in vitro) | CC50 at 48 h [3] [nM] | EC50 [4] [nM] | EC50 [5]
1 | Cc1nnc(C(C)C)n1[C@@H]1C[C@H]2CC[C@@H](C1)N2CC[C@H](NC(=O)C1CCC(F)(F)CC1)c1cscn1 | 78 | 67.4 | 2560 | > 200000 | – | –
2 | Cc1nnc(C(C)C)n1[C@@H]1C[C@H]2CC[C@@H](C1)N2CC[C@H](NC(=O)C1CCCC1)c1ccc(C#N)s1 | > 200000 | > 10000 | – | > 200000 | – | –
3 | COCc1nnc(C(C)C)n1[C@@H]1C[C@H]2CC[C@@H](C1)N2CC[C@H](NC(=O)C1CCC(F)(F)CC1)c1ccsc1 | 30 | 2.49 | 2430 | 72900 | – | –
4 | Cc1nnc(C(C)C)n1[C@@H]1C[C@H]2CC[C@@H](C1)N2CC[C@H](NC(=O)C1CCC(F)(F)CC1)c1ccc(C#N)s1 | > 200000 | > 10000 | – | > 200000 | – | –
5 | CC(=O)N[C@@H](CCN1[C@@H]2CC[C@H]1C[C@H](n1c(C)nnc1C(C)C)C2)c1cccs1 | – | 15 | 36.8 | 40500 | 1100 | –
6 | Cc1nnc(C(C)C)n1[C@@H]1C[C@H]2CC[C@@H](C1)N2CC[C@H](NC(=O)C1CCC(F)(F)CC1)c1ccsc1Cl | 540 | 5.34 | > 370 | > 200000 | – | –
7 | Cc1ccsc1[C@H](CCN1[C@@H]2CC[C@H]1C[C@H](n1c(C)nnc1C(C)C)C2)NC(=O)C1CCCC1 | – | 18.9 | > 6900 | > 200000 | – | 29 nM and 78 nM
8 | CC(=O)Nc1cccc(C(=O)N[C@@H](CCN2[C@@H]3CC[C@H]2C[C@H](n2c(C)nnc2C(C)C)C3)c2cccs2)c1 | 3390 | 40.4 | > 59 | > 200000 | – | –
9 | Cc1nnc(C(C)C)n1[C@@H]1C[C@H]2CC[C@@H](C1)N2CC[C@H](NC(=O)C1CCCC1)c1ccsc1Cl | 910 | 4.36 | > 219 | > 200000 | – | –
10 | Cc1nnc(C(C)C)n1[C@@H]1C[C@H]2CC[C@@H](C1)N2CC[C@H](NC(=O)C(F)(F)F)c1csc2ccccc12 | – | 680 | – | > 200000 | > 40000 | –
11 | COc1ccc(S(N)(=O)=O)cc1C(=O)N[C@@H](CCN1[C@@H]2CC[C@H]1C[C@H](n1c(C)nnc1C(C)C)C2)c1cccs1 | > 200000 | 1380 | – | > 200000 | – | –
